Experimental data: article PMC12108418, “Broad-Spectrum Gramicidin S Derivatives with Potent Activity Against Multidrug-Resistant Gram-Negative ESKAPE Pathogens” (Antibiotics, 2025)
Values after ≈ are worked out from the molar mass of the structure shown. Where two headings read alike, the source gives them in different places. Square brackets hold non-standard residues; d marks the D form. Peptide text beside a SMILES is read from it. Tle = CC(C)(C)[C@H](N)C(=O)O; Orn = NCCC[C@H](N)C(=O)O; Abu = CC[C@H](N)C(=O)O

Tests used:
[1] = tested on: Pseudomonas aeruginosa (ATCC 27853); format: cell-based
Method: (§1) The antibacterial efficacy of peptides was assessed using the broth microdilution method in accordance with Clinical and Laboratory Standards Institute (CLSI) guidelines (M07-A10, 2015 [33]). The minimum inhibitory concentrations (MICs) were determined against Escherichia coli (ATCC 25922), Klebsiella pneumoniae (ATCC 33495), Pseudomonas aeruginosa (ATCC 27853), Acinetobacter baumannii (ATCC 19606), and Staphylococcus aureus (ATCC 29213 and ATCC USA300). Bacterial suspensions were standardised to 5 × 10^4 colony-forming units (CFUs)/well in cation-adjusted Mueller–Hinton broth (CAMHB). Peptides were dissolved in 25% DMSO and serially diluted two-fold across 96-well plates, reaching final concentrations ranging from 256 to 0.125 µg/mL. The wells were inoculated, ensuring a final volume of 100 µL per well, with a DMSO concentration of 1% (v/v) to minimise solvent interference. […] Vancomycin was used as the positive control for S. aureus. Polymyxin B served as the positive control for Gram-negative bacteria. CAMHB with 1% (v/v) DMSO (without peptides) was used as the negative control. All experiments were performed in triplicate (n = 3). Bacterial isolates were stored in tryptone soy broth with 30% glycerol at −80 °C for long-term preservation.

[2] = tested on: Klebsiella pneumoniae (ATCC 33495); format: cell-based; conditions: ATCC 33495
Method: as §1

[3] = tested on: Escherichia coli (ATCC 25922); format: cell-based
Method: as §1

[4] = tested on: Acinetobacter baumannii (ATCC 19606); format: cell-based
Method: as §1

[5] = Analytical RP-HPLC retention time as measure of hydrophobicity; format: physicochemical; conditions: measure of global hydrophobicity, Phenomenex Kinetex 2.6 µm C18 (150 × 4.6 mm), 0.7 mL/min, ACN/TFA (100:0.0008) and water/TFA (100:0.001)
Method: Peptide purification was carried out via preparative RP-HPLC on an Agilent 1260 Infinity II system (Santa Clara, CA, USA) equipped with a 21.2 × 150 mm Agilent ZORBAX Eclipse Plus C18 column, operating at a flow rate of 25 mL/min. The mobile phase consisted of acetonitrile containing 0.0008% trifluoroacetic acid (v/v) as the organic phase and water with 0.001% TFA as the aqueous phase. […] Analytical HPLC analysis was performed on a Hewlett-Packard Series 1100 instrument using a Phenomenex (Torrance, CA, USA) Kinetex C18 column (150 mm × 4.6 mm, 2.6 µm particle size), under identical solvent conditions, to confirm purity.
HRMS of peptide 1. […] HRMS of peptide 2. […] HRMS of peptide 3. […] HRMS of peptide 4. […] HRMS of peptide 5. […] HRMS of peptide 6. […] HRMS of peptide 7. […] HRMS of peptide 8. […] HRMS of peptide 9. […] HRMS of peptide 10. […] HRMS of peptide 11. […] HRMS of peptide 12. […] HRMS of peptide 13. […] HRMS of peptide 14. […] HRMS of peptide 15. […] HRMS of peptide 16. […] HRMS of peptide 17. […] HRMS of peptide 18. […] HRMS of peptide 19.

[6] = broth microdilution in CAMHB, 5 × 10^4 CFU/well, 1% DMSO, 37 °C, 16–20 h, 256 to 0.125 µg/mL, triplicate (n = 3)

| SMILES | MIC P. aeruginosa ATCC 27853 ([1]; ATCC 27853) | MIC K. pneumonia ATCC 33495 [2] | MIC E. coli ATCC 25922 ([3]; ATCC 25922) | MIC A. baumannii ATCC 19606 ([4]; ATCC 19606) | RP-HPLC retention time tR [5] | MIC E. coli ATCC 25922 [3, 6] | MIC A. baumannii ATCC 19606 [4, 6] | MIC P. aeruginosa ATCC 27853 [1, 6] |
| --- | --- | --- | --- | --- | --- | --- | --- | --- |
| CC(C)C[C@@H]1NC(=O)[C@H](CCCN)NC(=O)[C@H](C(C)C)NC(=O)[C@@H]2CCCN2C(=O)[C@@H](Cc2ccccc2)NC(=O)[C@H](CC(C)C)NC(=O)[C@H](CCCN)NC(=O)[C@H](C(C)C)NC(=O)[C@@H]2CCCN2C(=O)[C@@H](Cc2ccccc2)NC1=O [GS, gramicidin S] (cyclo(V[Orn]L[dF]PV[Orn]L[dF]P)) | 128 µg/mL (≈ 112 µM) | 128 µg/mL (≈ 112 µM) | 32 µg/mL (≈ 28 µM) | 8 µg/mL (≈ 7.01 µM) |  |  |  |  |
| CC(C)(C)[C@@H]1NC(=O)[C@H](CCCN)NC(=O)[C@H](C(C)(C)C)NC(=O)[C@@H]2CCCN2C(=O)[C@@H](Cc2ccccc2)NC(=O)[C@H](C(C)(C)C)NC(=O)[C@H](CCCN)NC(=O)[C@H](C(C)(C)C)NC(=O)[C@@H]2CCCN2C(=O)[C@@H](Cc2ccccc2)NC1=O [Peptide 1] (cyclo([Orn][Tle][dF]P[Tle][Orn][Tle][dF]P[Tle])) | 64 µg/mL (≈ 54.7 µM) | 128 µg/mL (≈ 109 µM) | 32 µg/mL (≈ 27.4 µM) | 4 µg/mL (≈ 3.42 µM) | 19.90 min |  |  |  |
| CC(C)C[C@@H]1NC(=O)[C@H](CCCN)NC(=O)[C@H](C(C)C)NC(=O)[C@H](Cc2c[nH]c3ccccc23)NC(=O)[C@@H](Cc2ccccc2)NC(=O)[C@H](CC(C)C)NC(=O)[C@H](CCCN)NC(=O)[C@H](C(C)C)NC(=O)[C@H](Cc2c[nH]c3ccccc23)NC(=O)[C@@H](Cc2ccccc2)NC1=O [Peptide 4] (cyclo(L[dF]WV[Orn]L[dF]WV[Orn])) | >256 µg/mL | >256 µg/mL |  |  |  | > 256 µg/mL | > 256 µg/mL |  |
| CC(C)C[C@@H]1NC(=O)[C@H](CCCN)NC(=O)[C@H](C(C)C)NC(=O)[C@H](Cc2c[nH]c3ccccc23)NC(=O)[C@@H](Cc2c[nH]c3ccccc23)NC(=O)[C@H](CC(C)C)NC(=O)[C@H](CCCN)NC(=O)[C@H](C(C)C)NC(=O)[C@H](Cc2c[nH]c3ccccc23)NC(=O)[C@@H](Cc2ccccc2)NC1=O [Peptide 5] (cyclo(L[dF]WV[Orn]L[dW]WV[Orn])) | >256 µg/mL | >256 µg/mL |  |  |  | > 256 µg/mL | > 256 µg/mL |  |
| CC(C)(C)[C@@H]1NC(=O)[C@H](CCCN)NC(=O)[C@H](C(C)(C)C)NC(=O)[C@@H]2CCCN2C(=O)[C@@H](Cc2ccccc2)NC(=O)[C@H](C(C)(C)C)NC(=O)[C@H](CCCN)NC(=O)[C@H](C(C)(C)C)NC(=O)[C@@H]2CCCN2C(=O)[C@@H](CCCNC(=N)N)NC1=O [Peptide 7] (cyclo([Orn][Tle][dF]P[Tle][Orn][Tle][dR]P[Tle])) | 32 µg/mL (≈ 27.2 µM) | 32 µg/mL (≈ 27.2 µM) | 16 µg/mL (≈ 13.6 µM) | 4 µg/mL (≈ 3.39 µM) | 16.92 min |  |  |  |
| CC(C)C[C@@H]1NC(=O)[C@H](CCCN)NC(=O)[C@H](C(C)(C)C)NC(=O)[C@@H]2CCCN2C(=O)[C@@H](Cc2ccccc2)NC(=O)[C@H](CC(C)C)NC(=O)[C@H](CCCN)NC(=O)[C@H](C(C)C)NC(=O)[C@@H]2CCCN2C(=O)[C@@H](Cc2ccccc2)NC1=O [Peptide 12] (cyclo(L[dF]P[Tle][Orn]L[dF]PV[Orn])) | 128 µg/mL (≈ 111 µM) | 128 µg/mL (≈ 111 µM) | 32 µg/mL (≈ 27.7 µM) | 8 µg/mL (≈ 6.92 µM) |  |  |  |  |
| CC[C@@H]1NC(=O)[C@@H]2CCCN2C(=O)[C@@H](Cc2ccccc2)NC(=O)[C@H](CC(C)C)NC(=O)[C@H](CCCNC(=N)N)NC(=O)[C@H](C(C)C)NC(=O)[C@@H]2CCCN2C(=O)[C@@H](CCCNC(=N)N)NC(=O)[C@H](CC(C)C)NC(=O)[C@H](CCCN)NC1=O [Peptide 16] (cyclo([Abu][Orn]L[dR]PVRL[dF]P)) |  | 32 µg/mL (≈ 27.2 µM) | 32 µg/mL (≈ 27.2 µM) | 16 µg/mL (≈ 13.6 µM) | 16.24 min |  |  | 64 µg/mL (≈ 54.3 µM) |

Next, values leading:

| MIC P. aeruginosa ATCC 27853 ([1]; ATCC 27853) | MIC K. pneumonia ATCC 33495 [2] | MIC E. coli ATCC 25922 ([3]; ATCC 25922) | MIC A. baumannii ATCC 19606 ([4]; ATCC 19606) | RP-HPLC retention time tR [5] | MIC E. coli ATCC 25922 [3, 6] | MIC A. baumannii ATCC 19606 [4, 6] | MIC P. aeruginosa ATCC 27853 [1, 6] | SMILES |
| --- | --- | --- | --- | --- | --- | --- | --- | --- |
| >256 µg/mL | >256 µg/mL | 256 µg/mL (≈ 208 µM) | 64 µg/mL (≈ 52 µM) |  |  |  |  | CC(C)C[C@@H]1NC(=O)[C@H](CCCN)NC(=O)[C@H](C(C)C)NC(=O)[C@@H]2CCCN2C(=O)[C@@H](Cc2ccccc2)NC(=O)[C@H](CC(C)C)NC(=O)[C@H](CCCN)NC(=O)[C@H](C(C)C)NC(=O)[C@H](Cc2c[nH]c3ccccc23)NC(=O)[C@@H](Cc2ccccc2)NC1=O [Peptide 2] (cyclo(L[dF]PV[Orn]L[dF]WV[Orn])) |
| >256 µg/mL | >256 µg/mL |  | 128 µg/mL (≈ 101 µM) |  | > 256 µg/mL |  |  | CC(C)C[C@@H]1NC(=O)[C@H](CCCN)NC(=O)[C@H](C(C)C)NC(=O)[C@@H]2CCCN2C(=O)[C@@H](Cc2ccccc2)NC(=O)[C@H](CC(C)C)NC(=O)[C@H](CCCN)NC(=O)[C@H](C(C)C)NC(=O)[C@H](Cc2c[nH]c3ccccc23)NC(=O)[C@@H](Cc2c[nH]c3ccccc23)NC1=O [Peptide 3] (cyclo(L[dF]PV[Orn]L[dW]WV[Orn])) |
| 32 µg/mL (≈ 25.8 µM) | 16 µg/mL (≈ 12.9 µM) |  | 8 µg/mL (≈ 6.45 µM) |  | 8 µg/mL (≈ 6.45 µM) |  |  | CC(C)C[C@@H]1NC(=O)[C@H](CCCN)NC(=O)[C@H](C(C)C)NC(=O)[C@@H]2CCCN2C(=O)[C@@H](Cc2ccccc2)NC(=O)[C@H](CC(C)C)NC(=O)[C@H](CCCN)NC(=O)[C@H](C(C)C)NC(=O)[C@H](Cc2c[nH]c3ccccc23)NC(=O)[C@@H](CCCNC(=N)N)NC1=O [Peptide 8] (cyclo(L[dF]PV[Orn]L[dR]WV[Orn])) |
| 32 µg/mL (≈ 27.8 µM) | 16 µg/mL (≈ 13.9 µM) | 16 µg/mL (≈ 13.9 µM) | 8 µg/mL (≈ 6.95 µM) |  |  |  |  | CC(C)C[C@@H]1NC(=O)[C@H](CCCN)NC(=O)[C@H](C(C)C)NC(=O)[C@@H]2CCCN2C(=O)[C@@H](Cc2ccccc2)NC(=O)[C@H](CC(C)C)NC(=O)[C@H](CCCN)NC(=O)[C@H](C(C)C)NC(=O)[C@@H]2CCCN2C(=O)[C@@H](CCCNC(=N)N)NC1=O [Peptide 9] (cyclo(L[dF]PV[Orn]L[dR]PV[Orn])) |
| 32 µg/mL (≈ 25.8 µM) | 32 µg/mL (≈ 25.8 µM) | 16 µg/mL (≈ 12.9 µM) | 8 µg/mL (≈ 6.45 µM) |  |  |  |  | CC(C)C[C@@H]1NC(=O)[C@H](CCCN)NC(=O)[C@H](C(C)C)NC(=O)[C@@H]2CCCN2C(=O)[C@@H](CCCNC(=N)N)NC(=O)[C@H](CC(C)C)NC(=O)[C@H](CCCN)NC(=O)[C@H](C(C)C)NC(=O)[C@H](Cc2c[nH]c3ccccc23)NC(=O)[C@@H](Cc2ccccc2)NC1=O [Peptide 10] (cyclo(L[dF]WV[Orn]L[dR]PV[Orn])) |
| 32 µg/mL (≈ 24.1 µM) | 16 µg/mL (≈ 12 µM) | 16 µg/mL (≈ 12 µM) | 8 µg/mL (≈ 6.02 µM) |  |  |  |  | CC(C)C[C@@H]1NC(=O)[C@H](CCCN)NC(=O)[C@H](C(C)C)NC(=O)[C@H](Cc2c[nH]c3ccccc23)NC(=O)[C@@H](Cc2ccccc2)NC(=O)[C@H](CC(C)C)NC(=O)[C@H](CCCN)NC(=O)[C@H](C(C)C)NC(=O)[C@H](Cc2c[nH]c3ccccc23)NC(=O)[C@@H](CCCNC(=N)N)NC1=O [Peptide 11] (cyclo(L[dF]WV[Orn]L[dR]WV[Orn])) |
|  | 16 µg/mL (≈ 13.4 µM) | 16 µg/mL (≈ 13.4 µM) | 8 µg/mL (≈ 6.71 µM) | 16.47 min |  |  | 32 µg/mL (≈ 26.8 µM) | CC(C)C[C@@H]1NC(=O)[C@H](CCCN)NC(=O)[C@H](C(C)C)NC(=O)[C@@H]2CCCN2C(=O)[C@@H](Cc2ccccc2)NC(=O)[C@H](CC(C)C)NC(=O)[C@H](CCCNC(=N)N)NC(=O)[C@H](C(C)C)NC(=O)[C@@H]2CCCN2C(=O)[C@@H](CCCNC(=N)N)NC1=O [Peptide 15] (cyclo(L[dF]PV[Orn]L[dR]PVR)) |
